Data set [1] is described as follows: Visual solubility of carmustine in alcoholic solvents. Format: physicochemical.
The conditions of data set [2]: alcohol such as tertiary butanol; cited from earlier work.
A short description of data set [3]: Stability of carmustine solution in TBA or dehydrated ethanol. Conditions: storage at room temperature. Format: physicochemical.

As to `O=NN(CCCl)C(=O)NCCCl` [Carmustine, 1,3-bis (2-chloroethyl)-1-nitrosourea], the “precipitation on storage, TBA solution” value in data set [1] (TBA solution stored at about 2 to about 8° C.) is on record as “Neither of the solutions showed any sign of precipitation”. Also, in data set [1] (TBA, room temperature, visually determined), the “solubility in TBA” value was over 1 g per mL. Further, in data set [1] (dehydrated ethanol solution stored at about 2 to about 8° C.), the “precipitation on storage, dehydrated ethanol solution” value is “Neither of the solutions showed any sign of precipitation”. Besides, the “solubility in dehydrated ethanol” value in data set [1] (dehydrated ethanol, room temperature, visually determined) is given as over 1 g per mL. Further, the “solubility in alcohol, dichloromethane and ether” value in data set [2] is “very soluble”. The “time solution is stable, TBA” value in data set [3] (solution in TBA) was “at least 24 hrs”. Besides, the “time solution is stable, dehydrated ethanol” value in data set [3] (solution in dehydrated ethanol) was “at least 24 hrs”.

The record behind these values is US10869848B2 (priority 2014, dated 2020).
